Measured values from paper PMC12040169 (PLOS Biology, 2025).
Values after ≈ are worked out from the molar mass of the structure shown.

How the values were obtained:
[1] = test system: T1, CTL2-GFP (C. trachomatis L2/434/Bu, GFP-expressing); assay: microbe, parasite or virus in culture; set-up: species or system HeLa; C. trachomatis growth in HeLa, dose-response, mean of bulk GFP fluorescence and imaged total inclusion area; settings: Chlamydia trachomatis, 28.5 h; mean of GFP and inclusion area
T1 construct: L2/434/Bu, GFP-expressing
How it was run: (§1)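 Infected cells treated with library compounds were read for bulk GFP (chlamydial growth) and resorufin fluorescence (host viability), then fixed, Hoechst-stained and imaged. Inclusion area and number from GFP, plus nuclei counts, served as additional growth and viability proxies; MICs derived as previously described.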

[2] = test system: T1, CTL2-GFP (C. trachomatis L2/434/Bu, GFP-expressing); assay: microbe, parasite or virus in culture; set-up: C. trachomatis growth in HeLa, dose-response, mean of bulk GFP fluorescence and imaged total inclusion area; settings: Chlamydia trachomatis, HeLa, 28.5 h; mean of GFP and inclusion area
How it was run: as §1

in vitro = assay: in vitro; set-up: Viability of infected HeLa host cells, resazurin conversion, bulk resorufin fluorescence relative to DMSO; settings: human, hela cells; bulk resorufin, mean of 3
B. adolescentis = test system: T2, B. adolescentis; assay: microbe, parasite or virus in culture; set-up: Microbial growth in liquid dilution assay, OD600 relative to DMSO control; settings: Bifidobacterium adolescentis; estimated IC50; read-out: B. adolescentis, IC50 (µM) estimate
T2 construct: DSM 20083
From the text: (§2) Compound effects on commensal microbes in dilution assay As our objective was to discover compounds that inhibit Chlamydia selectively but spare commensal bacteria, we further tested 15 of our top compounds (c1e–c10e and c1v–c5v) against five bacterial species, Escherichia coli, Lactobacillus reuteri, Enterococcus faecalis, Bacteroides thetaiotaomicron, and Bifidobacterium adolescentis, representing the four dominating phyla of the human gut microbiota. […] Exceptions were c3e and c5e, which at 30 µM were inhibitory to some species. […] Of note, c1e–c3e had little or no effect on the growth of an even larger set of species of gut bacteria, also including Blautia coccoides, Prevotella copri, Prevotella histicola, Bacteroides fragilis, and Dubosiella newyorkensis, when tested in radial diffusion assays, in which the bacteria were exposed to compounds for 24–48 h before measurements of growth inhibition zones (S10B Fig and S5G Data).

E. faecalis = test system: T3, E. faecalis; assay: microbe, parasite or virus in culture; set-up: Microbial growth in liquid dilution assay, OD600 relative to DMSO control; settings: Enterococcus faecalis; estimated IC50; read-out: E. faecalis, IC50 (µM) estimate
T3 construct: DSM 20478
From the text: as §2

L. reuteri = test system: T4, L. reuteri; assay: microbe, parasite or virus in culture; set-up: Microbial growth in liquid dilution assay, OD600 relative to DMSO control; settings: Limosilactobacillus reuteri; estimated IC50; read-out: L. reuteri, IC50 (µM) estimate
T4 construct: DSM 20016
From the text: as §2

E. coli = test system: T5, E. coli; assay: microbe, parasite or virus in culture; set-up: Microbial growth in liquid dilution assay, OD600 relative to DMSO control; settings: Escherichia coli; estimated IC50; read-out: E. coli, IC50 (µM) estimate
T5 construct: DSM 301
From the text: as §2

B. thetaiotaomicron = test system: T6, B. thetaiotaomicron; assay: microbe, parasite or virus in culture; set-up: Microbial growth in liquid dilution assay, OD600 relative to DMSO control; settings: Bacteroides thetaiotaomicron; estimated IC50; read-out: B. thetaiotaomicron, IC50 (µM) estimate
T6 construct: DSM 2079
From the text: as §2

SMILES	MIC [1] [µM]	IC50 [2] [µM]	viability at 28.5 h, 0.000416667 µM (in vitro) [%]	viability at 28.5 h, 0.00125 µM (in vitro) [%]	viability at 28.5 h, 0.00375 µM (in vitro) [%]	viability at 28.5 h, 0.0123333 µM (in vitro) [%]	viability at 28.5 h, 0.037 µM (in vitro) [%]	viability at 28.5 h, 0.111 µM (in vitro) [%]	viability at 28.5 h, 0.333 µM (in vitro) [%]	viability at 28.5 h, 1 µM (in vitro) [%]	viability at 28.5 h, 3 µM (in vitro) [%]	viability at 28.5 h, 10 µM (in vitro) [%]	viability at 28.5 h, 30 µM (in vitro) [%]	IC50 (B. adolescentis) [µM]	IC50 (E. faecalis) [µM]	IC50 (L. reuteri) [µM]	IC50 (E. coli) [µM]	IC50 (B. thetaiotaomicron) [µM]
CN(C(=O)c1ccc(Cl)c(Cl)c1)[C@H]1CCC[C@H]1N1CCCC1 [c12e]	1.7 (≈ 0.581 µg/mL)	1.02	93	89.3	91.4	89	88.9	92.8	88.7	89	85.2	92.7	82.8					
COc1c(Br)cc2c(cc(C)n2-c2ccccc2)c1OCC(O)CNC(C)C (centres unmarked) [c5e]	0.767 (≈ 0.343 µg/mL)	0.375	87.7	89.3	86.3	90.9	88.9	91.6	87.6	92.4	89.5	97	0	10.3	> 30	> 30	> 30	> 30
CNC(=S)N1CCN(c2nsc3ccccc23)CC1 [c6e]	0.771 (≈ 0.225 µg/mL)	0.413	103	100	99.1	101	97.3	105	101	108	103	102	76	> 30	> 30	> 30	> 30	> 30
O=C(NCCc1c[nH]c2ccc(Cl)cc12)c1c(F)ccc(Cl)c1F [c42e]	5.43 (≈ 2 µg/mL)	5.3	100	101	98.1	104	99.6	101	106	109	107	103	107					
O=[N+]([O-])c1ccc(-n2cnc3ccccc32)c([N+](=O)[O-])c1 [c41e]	11.2 (≈ 3.17 µg/mL)	5.2	99	96.9	102	101	104	97.8	104	99.3	99	101	96.3					
COc1cccc(CNC(C(=O)O)c2ccc3c(c2)OCO3)c1 (centres unmarked) [c40e]	10.8 (≈ 3.42 µg/mL)	4.96	109	98.4	103	95.7	99.4	102	103	104	103	99.7	89.7					
O=C(N/N=C/c1ccc(Sc2cccc3cccnc23)o1)c1cccc(F)c1 [c10e]	5.57 (≈ 2.18 µg/mL)	0.828	84.5	93.8	84.5	91.6	82.9	92.9	88	94.1	89.3	89.9	81.1	> 30	> 30	> 30	> 30	> 30
O=C(CC1SC(Nc2ccc(O)cc2)=NC1=O)c1ccccc1 (centres unmarked) [c13e]	4.56 (≈ 1.49 µg/mL)	1.03	95	92.7	87.7	95	87.6	92	86.2	88.7	85.2	85.6	83.8					
